From patent US7317037B2, “Progesterone receptor modulators comprising pyrrole-oxindole derivatives and uses thereof” (Wyeth, priority 2004, dated 2008) come the findings set out here.

The subject of series [1] is menses induction. The series can be described thus: Cynomolgus monkey menses induction assay. Format: in vivo. Particulars: 5 mg/kg po. The method, then: C. Cynomolgus Monkey […] Induction 1. Experimental Design The effects of administered compound(s) in either a single dose or a dose-response paradigm versus an appropriate control (vehicle alone) are determined. When a compound is tested at a single dose, a group of four animals will be used for the dose. In the dose response study, each experiment will involve up to 5 groups of animals (a control group and 4 groups of animals treated with varying doses of the compound). Experimental groups will contain 3-4 animals/group, since this sample size is commonly used in the literature and has been found appropriate based on our own experience. The animals are treated with test compounds once or twice daily for 4 days in the mid-luteal phase of the menstrual cycle to assess the efficacy of the compounds on the reproductive parameters menstruation. 2. Procedures Initially, animals are characterized in terms of their reproductive cyclicity by observing time of menstruation. Only those animals with two consecutive normal cycles are used to evaluate test compounds. […] will be determined by daily gross examination for vaginal bleeding. In each experiment, animals will be treated once or twice daily IV, IM, SC or PO with the test compound. Appropriate vehicles will be determined for each route of administration and will be specified through protocol amendments. […]

A short description of series [2]: Cynomolgus monkey intravenous pharmacokinetics. The following applies: in vivo, cynomolgus monkeys, 0.25 mg/kg i.v. From the text:
Therefore from the preceding data it is clear that the R6=fluorine group present in 5-(7-fluoro-3,3-dimethyl-2-oxo-2,3-dihydro-1H-indol-5-yl)-1-methyl-1H-pyrrole-2-carbonitrile dramatically improves the pharmacokinetic performance of the molecule. This improved pharmacokinetic performance translates in the cynomolgus menses induction assay to a dramatic improvement in activity.

The test system of series [3] is rat uterine decidualization. The series can be described thus: Rat decidualization assay. Format: in vivo. The following applies: po, read-out: ED50 in the rat decidual assay. The method, then: B. Progestational and Antiprogestational Activity in Mature Ovariectomized Rats (Rat Decidualization Assay)
This assay is used to evaluate the effect of progestins and antiprogestins on rat uterine decidualization and compare the relative potencies of various test compounds.
Test compounds are dissolved in 100% ethanol and mixed with corn oil (vehicle). Stock solutions of the test compounds in oil (Mazola™) are then prepared by heating (˜80° C.) the mixture to evaporate ethanol. Test compounds are subsequently diluted with 100% corn oil or 10% ethanol in corn oil prior to the treatment of animals. No difference in decidual response is found when these two vehicles are compared. […]
Approximately 24 hr after the third injection, decidualization is induced in one of the uterine horns of anesthetized rats by scratching the antimesometrial luminal epithelium with a blunt 21 G needle. […] Approximately 24 hr following the final treatment, rats are sacrificed by […] and bodyweight measured. […]
In agonist mode, the increase in weight of the decidualized uterine horn is calculated by D-horn/C-horn and logarithmic transformation is used to maximize normality and homogeneity of variance. […] EC50 is calculated from the transformed value. […] IC50 is calculated from the retransformed value. […]

With `Cn1c(C#N)ccc1-c1ccc2c(c1)C(C)(C)C(=O)N2` [5-(3,3-Dimethyl-2-oxo-2,3-dihydro-1H-indol-5-yl)-1-methyl-1H-pyrrole-2-carbonitrile, reference compound], the “induction of early onset of menses” value in series [1] is recorded as “not active”. For the same compound, in series [2] (read-out: exposure (AUC0-∞)), the AUC(0-inf) was 343 ng·h/mL. Besides, in series [2] (read-out: mean half life (t1/2) (converted)), the half-life is 2.1 h. Besides, the ED50 (usually the midpoint of the dose-response relation) in series [3] is 0.2 mg/kg.
